Measured values from patent US20140148432A1, “Compounds for the Treatment of Neurological Disorders” (priority 2009, published 2014).
Like-named read-outs stand apart in the source and are kept apart here.

What was measured:
[1] = target: GluN1/GluN2A subtype of NMDA receptors (Rattus norvegicus, UniProt Q00959); assay: NMDA receptor subunit selectivity, GluN1/GluN2A in Xenopus oocytes; assay type: cell-based; conditions: 2 min; 10 μM antagonist with 50 μM glutamate and 30 μM glycine, two min; agonists alone = 100%; read-out: GluN2A % Current Remaining
Procedure: (§1) Stage V and VI oocytes were surgically removed from the ovaries of large, well-fed and healthy Xenopus laevis anesthetized with 3-amino-benzoic acid ethyl ester (3 gm/l). Clusters of isolated oocytes were incubated with 292 U/ml Worthington (Freehold, N.J.) type IV collagenase or 1.3 mg/ml collagenase (Life Technologies, Gaithersburg, Md.; 17018-029) for 2 hr in Ca^2+-free solution comprised of (in mM) 115 NaCl, 2.5 KCl, and 10 HEPES, pH 7.5, with slow agitation to remove the follicular cell layer. Oocytes were then washed in the same solution supplemented with 1.8 mM CaCl2 and maintained in Barth's solution comprised of (in mM): 88 NaCl, 1 KCl, 2.4 NaHCO3, 10 HEPES, 0.82 MgSO4, 0.33 Ca(NO3)2, and 0.91 CaCl2 and supplemented with 100 μg/ml gentamycin, 10 μg/ml streptomycin, and 10 μg/ml penicillin. Oocytes were manually defolliculated and injected within 24 hrs of isolation with 3-5 ng of GluN1 subunit cRNA and 7-10 ng of GluN2 cRNA subunit in a 50 nl volume, and incubated in Barth's solution at 18° C. for 2-7 d. Glass injection pipettes had tip sizes ranging from 10-20 microns, and were backfilled with mineral oil. cRNA was synthesized from linearized template cDNA for rat glutamate receptor subunits according to manufacturer specifications (Ambion).
(§2) Two electrode voltage-clamp recordings were made 2-7 days post-injection. Oocytes were placed in a dual-track plexiglass recording chamber with a single perfusion line that splits in a Y-configuration to perfuse two oocytes. Dual recordings were made at room temperature (23° C.) using two Warner 00725B two-electrode voltage clamp amplifiers, arranged as recommended by the manufacturer. Glass microelectrodes (1-10 Megaohms) were filled with 300 mM KCl (voltage electrode) or 3 M KCl (current electrode). The bath clamps communicated across silver chloride wires placed into each side of the recording chamber, both of which were assumed to be at a reference potential of 0 mV. Oocytes were perfused with a solution comprised of (in mM) 90 NaCl, 1 KCl, 10 HEPES, […] and 0.5 BaCl2; pH was adjusted by addition of 1-3 M NaOH or HCl. Oocytes were recorded under voltage clamp at −40 mV. Final concentrations for glutamate and glycine were 50 μM and 30 μM, respectively. Concentration-response curves for experimental compounds were obtained by applying in successive fashion maximal glutamate/glycine, followed by glutamate/glycine plus variable concentrations of experimental compounds. Dose response curves consisting of 4 to 8 concentrations were obtained in this manner. The baseline leak current at −40 mV was measured before and after recording, and the full recording linearly corrected for any change in leak current. The level of inhibition by applied experimental compounds was expressed as a percent of the initial glutamate response, and averaged together across oocytes from multiple experiments. Results were pooled, and the average percent responses at antagonist concentrations were fit by the equation,
(§3) GluN1/GluN2A and GluN1/GluN2D subtype of NMDA receptors were expressed in Xenopus laevis as described in Example 13. Here, a 10 μM concentration of the antagonist was perfused with 50 μM glutamate and 30 μM glycine onto the oocyte for two min and the remaining current in the presence of the antagonist was compared to the maximal current obtained with 50 μM glutamate and 30 μM glycine alone (defined as 100%).

GluN1/GluN2B receptors [2] = target: GluN1/GluN2B receptors (Homo sapiens, UniProt Q05586+Q13224); assay: IC50 of GluN1/GluN2B receptors expressed in Xenopus oocytes (two electrode voltage-clamp), human; assay type: cell-based; conditions: for Human pH Boost Ratio (IC50 pH 7.6/IC50 pH 6.9): IC50 at pH 7.6 divided by IC50 at pH 6.9; for IC50: 30 μM glycine
[3] = target: T1, human ether-a-go-go potassium channel (hERG) expressed in HEK293 cells (Homo sapiens, UniProt Q12809); assay: hERG binding, displacement of [3H]-astemizole; conditions: 10 μM test compound, 1.5 nM [3H]-astemizole, duplicate
T1 construct: expressed in transfected cells; host or cells: HEK293 cells
Procedure: (§4) Binding to the human ether-a-go-go potassium channel (hERG) expressed in HEK293 cells by displacement of 1.5 nM [3H]-astemizole. Each result represents the average of displacement binding experiments done in duplicate at 10 uM of the test compound. Percent displacement of 0.25 nM [3H]-prazosin from Wistar rat brain membranes. Each result represents the average of displacement binding experiments done in duplicate at 3 μM of the test compound.

α1-Adrenergic = α1-Adrenergic binding, displacement of [3H]-prazosin from brain membranes; conditions: 3 μM test compound, 0.25 nM [3H]-prazosin, Wistar rat brain membranes, duplicate
Procedure: as §4

[4] = target: GluN1/GluN2D subtype of NMDA receptors (Rattus norvegicus, UniProt Q62645); assay: NMDA receptor subunit selectivity, GluN1/GluN2D in Xenopus oocytes; assay type: cell-based; conditions: 2 min; 10 μM antagonist with 50 μM glutamate and 30 μM glycine, two min; agonists alone = 100%; read-out: GluN2D % Current Remaining
Procedure: as §1, §2, §3

GluN1/GluN2B receptors [5] = target: GluN1/GluN2B receptors (Rattus norvegicus, UniProt P35439+Q00960); assay: IC50 of GluN1/GluN2B receptors expressed in Xenopus oocytes (two electrode voltage-clamp), rat; assay type: cell-based; conditions: pH 7.4, 50 μM glutamate, 30 μM glycine
Procedure: as §1, §2
Percent Response=(100−minimum)/(1+([conc]/IC50)^nH)+minimum
where minimum is the residual percent response in saturating concentration of the experimental compounds, IC50 is the concentration of antagonist that causes half of the achievable inhibition, and nH is a slope factor describing steepness of the inhibition curve. Minimum was constrained to be greater than or equal to 0.
Recordings were made at pH 6.9, pH 7.4, and pH 7.6. The pH Boost ratio calculated by dividing the IC50 measured at pH 7.6 by the IC50 measured at pH 6.9.

[6] = target: GluN1/GluN2B-NMDA receptors (Homo sapiens, UniProt Q05586+Q13224); assay: Noncompetitive block of GluN1/GluN2B-NMDA receptors in Xenopus oocytes; assay type: cell-based; conditions: 0.1 μM compound 24; increasing glutamate (30 μM glycine) or increasing glycine (30 μM glutamate)
Procedure: Results shown are the mean±SEM of 7 (panel A) or 6 (panel B) oocytes.
Stage V and VI oocytes were surgically removed from the ovaries of large, well-fed and healthy Xenopus laevis anesthetized with 3-amino-benzoic acid ethyl ester (3 gm/l). Clusters of isolated oocytes were incubated with 292 U/ml Worthington (Freehold, N.J.) type IV collagenase or 1.3 mg/ml collagenase (Life Technologies, Gaithersburg, Md.; 17018-029) for 2 hr in Ca^2+-free solution comprised of (in mM) 115 NaCl, 2.5 KCl, and 10 HEPES, pH 7.5, with slow agitation to remove the follicular cell layer. Oocytes were then washed in the same solution supplemented with 1.8 mM CaCl2 and maintained in Barth's solution comprised of (in mM): 88 NaCl, 1 KCl, 2.4 NaHCO3, 10 HEPES, 0.82 MgSO4, 0.33 Ca(NO3)2, and 0.91 CaCl2 and supplemented with 100 μg/ml gentamycin, 10 μg/ml streptomycin, and 10 μg/ml penicillin. […]
Two electrode voltage-clamp recordings were made 2-7 days post-injection. […] Oocytes were recorded under voltage clamp at −40 mV. […] The baseline leak current at −40 mV was measured before and after recording, and the full recording linearly corrected for any change in leak current. The level of inhibition by applied experimental compounds was expressed as a percent of the initial glutamate response, and averaged together across oocytes from multiple experiments. […]

[7] = pH 6.9, 50 μM glutamate, read-out: Human pH 6.9 IC50
[8] = pH 7.4, 50 μM glutamate, read-out: Human pH 7.4 IC50

Chain of GluN1/GluN2B receptors (Homo sapiens, UniProt Q05586+Q13224) (Q13224 27-1484, other chains not shown): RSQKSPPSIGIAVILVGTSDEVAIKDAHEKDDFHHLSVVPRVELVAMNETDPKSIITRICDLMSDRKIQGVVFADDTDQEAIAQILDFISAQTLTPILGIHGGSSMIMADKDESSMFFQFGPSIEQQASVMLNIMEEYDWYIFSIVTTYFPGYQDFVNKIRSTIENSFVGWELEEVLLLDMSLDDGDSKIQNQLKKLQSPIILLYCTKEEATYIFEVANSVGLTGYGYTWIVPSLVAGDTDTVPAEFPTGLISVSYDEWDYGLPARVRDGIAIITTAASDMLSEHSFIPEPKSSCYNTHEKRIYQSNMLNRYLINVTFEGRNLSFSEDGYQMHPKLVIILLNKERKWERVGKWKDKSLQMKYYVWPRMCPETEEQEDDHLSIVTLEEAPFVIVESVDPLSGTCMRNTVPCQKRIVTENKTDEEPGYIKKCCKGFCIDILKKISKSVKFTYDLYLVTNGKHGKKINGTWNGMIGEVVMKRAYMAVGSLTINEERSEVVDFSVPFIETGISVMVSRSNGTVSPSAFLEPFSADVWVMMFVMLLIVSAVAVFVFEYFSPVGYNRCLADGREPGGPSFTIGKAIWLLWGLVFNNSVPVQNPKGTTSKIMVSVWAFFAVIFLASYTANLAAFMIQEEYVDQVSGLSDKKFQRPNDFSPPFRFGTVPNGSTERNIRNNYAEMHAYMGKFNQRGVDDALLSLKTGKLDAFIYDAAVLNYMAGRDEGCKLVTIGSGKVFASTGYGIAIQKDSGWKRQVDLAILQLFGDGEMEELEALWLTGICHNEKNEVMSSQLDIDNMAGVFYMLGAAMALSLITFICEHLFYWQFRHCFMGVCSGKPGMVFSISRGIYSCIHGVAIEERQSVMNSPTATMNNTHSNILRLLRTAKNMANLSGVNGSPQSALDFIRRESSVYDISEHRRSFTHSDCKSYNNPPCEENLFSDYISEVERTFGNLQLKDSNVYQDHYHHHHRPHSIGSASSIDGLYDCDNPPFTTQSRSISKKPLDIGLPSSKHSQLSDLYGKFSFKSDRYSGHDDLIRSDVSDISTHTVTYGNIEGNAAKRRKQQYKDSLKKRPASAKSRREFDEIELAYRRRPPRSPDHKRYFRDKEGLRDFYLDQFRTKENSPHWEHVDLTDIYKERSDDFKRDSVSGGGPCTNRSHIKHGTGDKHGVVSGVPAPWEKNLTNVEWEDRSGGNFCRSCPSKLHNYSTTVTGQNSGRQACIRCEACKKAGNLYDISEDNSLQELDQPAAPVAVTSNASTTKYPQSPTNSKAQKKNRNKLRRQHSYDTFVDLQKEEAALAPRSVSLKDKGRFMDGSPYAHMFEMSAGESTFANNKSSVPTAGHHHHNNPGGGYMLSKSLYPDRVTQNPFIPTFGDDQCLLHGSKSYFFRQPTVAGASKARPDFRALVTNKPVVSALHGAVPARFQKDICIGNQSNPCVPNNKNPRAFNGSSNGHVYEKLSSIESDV
Chain of GluN1/GluN2B receptors (Rattus norvegicus, UniProt P35439+Q00960) (Q00960 27-1482, other chains not shown): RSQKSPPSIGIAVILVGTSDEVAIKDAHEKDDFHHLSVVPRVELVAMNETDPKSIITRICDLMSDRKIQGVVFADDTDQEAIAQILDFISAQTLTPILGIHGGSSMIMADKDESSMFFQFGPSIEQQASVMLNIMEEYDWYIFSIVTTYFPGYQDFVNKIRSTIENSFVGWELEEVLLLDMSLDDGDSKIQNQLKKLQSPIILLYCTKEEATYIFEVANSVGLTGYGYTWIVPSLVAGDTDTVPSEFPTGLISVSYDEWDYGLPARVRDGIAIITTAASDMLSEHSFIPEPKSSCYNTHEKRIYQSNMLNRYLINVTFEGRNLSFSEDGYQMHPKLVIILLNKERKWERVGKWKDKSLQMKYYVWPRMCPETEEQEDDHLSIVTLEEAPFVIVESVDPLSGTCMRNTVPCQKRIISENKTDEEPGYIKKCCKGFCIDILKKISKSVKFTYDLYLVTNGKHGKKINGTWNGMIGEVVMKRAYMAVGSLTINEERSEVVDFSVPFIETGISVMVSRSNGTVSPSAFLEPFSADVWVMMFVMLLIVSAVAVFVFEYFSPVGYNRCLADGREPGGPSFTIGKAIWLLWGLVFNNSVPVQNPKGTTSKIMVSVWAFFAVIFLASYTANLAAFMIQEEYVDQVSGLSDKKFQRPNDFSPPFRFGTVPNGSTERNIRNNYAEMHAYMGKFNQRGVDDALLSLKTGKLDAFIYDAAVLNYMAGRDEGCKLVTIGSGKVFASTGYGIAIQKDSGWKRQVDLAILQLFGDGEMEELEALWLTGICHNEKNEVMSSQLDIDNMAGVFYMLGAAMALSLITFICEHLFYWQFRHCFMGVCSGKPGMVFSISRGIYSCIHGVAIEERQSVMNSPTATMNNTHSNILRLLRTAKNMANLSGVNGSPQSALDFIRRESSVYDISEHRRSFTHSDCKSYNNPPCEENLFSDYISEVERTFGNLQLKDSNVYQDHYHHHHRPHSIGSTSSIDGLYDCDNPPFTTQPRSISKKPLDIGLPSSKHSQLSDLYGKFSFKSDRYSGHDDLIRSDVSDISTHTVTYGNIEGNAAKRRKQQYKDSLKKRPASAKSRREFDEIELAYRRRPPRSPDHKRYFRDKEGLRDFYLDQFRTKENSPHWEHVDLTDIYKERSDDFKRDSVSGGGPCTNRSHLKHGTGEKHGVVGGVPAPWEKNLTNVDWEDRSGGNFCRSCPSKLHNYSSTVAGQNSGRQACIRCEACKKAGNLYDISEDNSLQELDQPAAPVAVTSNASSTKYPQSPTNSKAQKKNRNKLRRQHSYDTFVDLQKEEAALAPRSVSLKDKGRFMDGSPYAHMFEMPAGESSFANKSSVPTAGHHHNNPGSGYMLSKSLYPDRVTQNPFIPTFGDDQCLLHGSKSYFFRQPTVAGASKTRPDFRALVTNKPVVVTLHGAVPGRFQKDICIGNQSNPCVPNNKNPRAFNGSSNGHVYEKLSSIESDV
T1 sequence (Q12809 whole entry): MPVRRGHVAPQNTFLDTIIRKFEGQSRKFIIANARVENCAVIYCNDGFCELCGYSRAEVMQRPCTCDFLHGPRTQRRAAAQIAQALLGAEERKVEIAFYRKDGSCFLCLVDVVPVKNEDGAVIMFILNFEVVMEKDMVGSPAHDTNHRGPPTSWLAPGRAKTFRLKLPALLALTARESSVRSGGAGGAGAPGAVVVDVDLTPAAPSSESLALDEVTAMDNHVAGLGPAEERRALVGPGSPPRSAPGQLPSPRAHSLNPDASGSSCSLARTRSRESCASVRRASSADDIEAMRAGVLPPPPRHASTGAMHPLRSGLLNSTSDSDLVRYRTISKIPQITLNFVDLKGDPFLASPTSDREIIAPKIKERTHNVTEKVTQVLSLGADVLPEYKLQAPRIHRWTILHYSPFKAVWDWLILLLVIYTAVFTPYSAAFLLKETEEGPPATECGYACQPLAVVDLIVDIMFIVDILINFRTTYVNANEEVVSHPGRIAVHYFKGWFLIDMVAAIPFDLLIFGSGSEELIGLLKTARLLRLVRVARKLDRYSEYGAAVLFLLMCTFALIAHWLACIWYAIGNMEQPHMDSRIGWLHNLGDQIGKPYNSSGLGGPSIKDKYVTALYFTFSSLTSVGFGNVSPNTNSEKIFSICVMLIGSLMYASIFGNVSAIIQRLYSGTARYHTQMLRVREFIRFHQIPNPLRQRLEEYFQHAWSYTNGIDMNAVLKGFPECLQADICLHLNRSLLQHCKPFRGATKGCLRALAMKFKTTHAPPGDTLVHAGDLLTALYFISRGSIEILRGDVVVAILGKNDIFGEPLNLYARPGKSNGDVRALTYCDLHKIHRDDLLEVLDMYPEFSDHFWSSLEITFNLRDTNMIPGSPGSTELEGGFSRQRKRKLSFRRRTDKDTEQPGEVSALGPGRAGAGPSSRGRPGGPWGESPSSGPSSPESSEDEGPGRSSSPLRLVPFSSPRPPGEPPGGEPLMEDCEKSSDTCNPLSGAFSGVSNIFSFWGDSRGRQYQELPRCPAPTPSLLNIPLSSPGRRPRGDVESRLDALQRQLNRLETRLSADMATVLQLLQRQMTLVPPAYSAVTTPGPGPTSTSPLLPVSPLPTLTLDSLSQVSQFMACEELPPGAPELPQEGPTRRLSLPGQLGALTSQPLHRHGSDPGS

| Compound | remaining activity at 10 µM [1] | Human pH Boost Ratio (IC50 pH 7.6/IC50 pH 6.9) (GluN1/GluN2B receptors [2]) | IC50 (GluN1/GluN2B receptors [2]; [7]) | IC50 (GluN1/GluN2B receptors [2]; [8]) | hERG Binding % Displacement @ 10 μM [3] | α1-Adrenergic binding % Displacement @ 3 μM (α1-Adrenergic) | remaining activity at 10 µM [4] | IC50 (GluN1/GluN2B receptors [5]) | Block on increasing glutamate and increasing glycine [6] |
| --- | --- | --- | --- | --- | --- | --- | --- | --- | --- |
| O=C1CCc2cc(OCC3CN(C(=O)Nc4ccc(Cl)c(Cl)c4)C3)ccc2N1 [Compound 23, N-(3,4-dichlorophenyl)-3-(((2-oxo-1,2,3,4-tetrahydroquinolin-6-yl)oxy)methyl)azetidine-1-carboxamide] | 94.6% | 3.0 | 19 nM | 41 nM | 60% | 25% | 87.6% | 53 nM | – |
| O=C1CCc2cc(OCC3CN(C(=O)Nc4ccc(C(F)(F)F)cc4)C3)ccc2N1 [Compound 24, 3-(((2-oxo-1,2,3,4-tetrahydroquinolin-6-yl)oxy)methyl)-N-(4-(trifluoromethyl)phenyl)azetidine-1-carboxamide] | 94.2% | 3.6 | 27 nM | 74 nM | 68% | 12% | 84.5% | 54 nM | cannot overcome the block |
| O=C1CCc2cc(OCC3CN(C(=O)n4ccnc4)C3)ccc2N1 [Compound 26, 6-((1-(1H-imidazole-1-carbonyl)azetidin-3-yl)methoxy)-3,4-dihydroquinolin-2(1H)-one] | 102% | – | > 30000 nM | > 10000 nM | <1% | <1% | 94.9% | 6100 nM | – |
| O=C1CCc2cc(OCC3CN(C(=O)NCc4ccc(Cl)cc4)C3)ccc2N1 [Compound 28, N-(4-chlorobenzyl)-3-(((2-oxo-1,2,3,4-tetrahydroquinolin-6-yl)oxy)methyl)azetidine-1-carboxamide] | 102% | 3.5 | 2300 nM | 3500 nM | 27% | 12% | 94.5% | 4900 nM | – |
| O=C(Nc1ccc(Cl)cc1)N1CCC(COc2ccc(O)cc2)CC1 [Compound 33] | 111% | 1.8 | 740 nM | – | – | – | 104% | – | – |
| O=C(Nc1ccc(Cl)c(Cl)c1)N1CCC(COc2ccc(O)cc2)CC1 [Compound 35, N-(3,4-dichlorophenyl)-4-((4-hydroxyphenoxy)methyl)-piperidine-1-carboxamide] | 104% | 1.2 | 764 nM | – | – | – | 104% | – | – |
